These results are taken from PubChem BioAssay (NCI).

Several values for one entry are separate records, joined by “and”; a condition that tells them apart may be missing. Equal entries are not always repeated.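 Growth conditions: 96-well plates. Treatment: test compound, 48 hours, 5 concentrations. Analysis: linear interpolation between bracketing concentrations; unreached endpoints set to highest concentration. Abbreviation: GI50, concentration required for 50% inhibition of growth. Definition used: TGI = concentration required for complete inhibition of growth.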

Test systems include DU-145 prostate; MALME-3M melanoma; 786-0 renal; OVCAR-3 ovarian; OVCAR-8 ovarian; ACHN renal; NCI-H460 lung; IGROV1 ovarian; UO-31 renal; SW-620 colon.
What all share (assay): NCI-60 cell line screen, 48 h

On to `Cc1nc2c(-c3cnc(N)nc3)nc(N3CCOCC3)nc2n1C(C)C`, for which the TGI was over 100 µM with DU-145 prostate; 0.46 µM and 0.225 µM with MALME-3M melanoma; 1.32 µM and 0.902 µM in the test on 786-0 renal; 1.64 µM and 1.92 µM in the test on OVCAR-3 ovarian; > 5.51 µM and 4.37 µM in the test on OVCAR-8 ovarian; over 100 µM in the test on ACHN renal. Besides, the TGI in the test with NCI-H460 lung is over 100 µM; in the test with IGROV1 ovarian, 0.262 µM and 0.286 µM; in the test with UO-31 renal, 0.452 µM and 0.401 µM; with SW-620 colon, over 100 µM.

With `N#CC(=C1C=CC(=NO)C=C1)c1ccccc1`, the GI50 was 1.58 µM with DU-145 prostate; 4.92 µM with MALME-3M melanoma; 1.69 µM in the test on 786-0 renal; 0.458 µM in the test with OVCAR-3 ovarian; 2.71 µM in the test with OVCAR-8 ovarian; 1.14 µM in the test with ACHN renal. Further, the GI50 in the test with NCI-H460 lung is 1.3 µM; in the test on IGROV1 ovarian, 1.3 µM; in the test with UO-31 renal, 3.45 µM; in the test with SW-620 colon, 0.473 µM. The TGI with DU-145 prostate came out at 4.05 µM; in the test on MALME-3M melanoma, 19.8 µM; in the test with 786-0 renal, 9.91 µM; in the test on OVCAR-3 ovarian it was 4.38 µM; in the test with OVCAR-8 ovarian it was 12.3 µM; in the test with ACHN renal, 10.1 µM. Moreover, the TGI in the test on NCI-H460 lung turned out to be 6.11 µM; in the test with IGROV1 ovarian, 4.53 µM; in the test on UO-31 renal, 19 µM; with SW-620 colon, 2.36 µM.

In the case of `CCN(CC)c1ccc2c(c1)OC(N)=C(C#N)C2c1cc(OC)c2c(c1)OCO2` (stereo not given), the GI50 was 0.0358 µM with DU-145 prostate; 0.445 µM in the test on MALME-3M melanoma; 0.0438 µM in the test with 786-0 renal; 0.0168 µM in the test on OVCAR-3 ovarian; 0.0395 µM with OVCAR-8 ovarian; 0.101 µM in the test on ACHN renal. Also, the GI50 in the test with NCI-H460 lung was 0.0336 µM; in the test on IGROV1 ovarian, 0.104 µM; in the test on UO-31 renal, 0.403 µM; with SW-620 colon, 0.0354 µM. Besides, the TGI in the test on DU-145 prostate is 0.428 µM; with MALME-3M melanoma it was 5.59 µM; with 786-0 renal, 3.16 µM; in the test with OVCAR-3 ovarian, 0.0466 µM; in the test with OVCAR-8 ovarian, 3.53 µM; in the test with ACHN renal it was 6.7 µM. Moreover, the TGI is 0.503 µM in the test with NCI-H460 lung, 33.7 µM in the test with IGROV1 ovarian, over 43.3 µM in the test with UO-31 renal and over 48.9 µM in the test on SW-620 colon.

As to `Cc1cc(I)cc(CN(C)CCCN2CCCCCCC2)c1O`, the GI50 was 17.8 µM with DU-145 prostate; 19.5 µM in the test with MALME-3M melanoma; 12.7 µM in the test on 786-0 renal; 14.8 µM in the test with OVCAR-3 ovarian; 19.8 µM with OVCAR-8 ovarian; 18.1 µM in the test with ACHN renal. Moreover, the GI50 in the test on NCI-H460 lung was 13.7 µM; in the test with IGROV1 ovarian, 15.4 µM; with UO-31 renal, 11.8 µM; with SW-620 colon, 16.2 µM. For the same molecule, the TGI stood at 38 µM with DU-145 prostate; 36.1 µM in the test on MALME-3M melanoma; 26.3 µM in the test on 786-0 renal; 29.1 µM in the test on OVCAR-3 ovarian; 43.4 µM in the test on OVCAR-8 ovarian; 32.4 µM in the test with ACHN renal. Also, the TGI with NCI-H460 lung is 28.3 µM; in the test with IGROV1 ovarian, 32 µM; with UO-31 renal, 26.2 µM; in the test with SW-620 colon, 30.8 µM.

For `CC(CCC=O)CCOCc1ccccc1` (stereo not given), the TGI in the test with DU-145 prostate, in the test on MALME-3M melanoma, in the test on 786-0 renal, in the test with OVCAR-3 ovarian, with OVCAR-8 ovarian and in the test with ACHN renal was over 100 µM throughout. Besides, the TGI in the test with NCI-H460 lung, in the test on IGROV1 ovarian, with UO-31 renal and in the test on SW-620 colon was over 100 µM each time.

Regarding `O=C(Cc1ccc(/C=C/C(=O)c2ncc[nH]2)cc1)Nc1cc(F)c(F)c(F)c1`, the GI50 in the test with DU-145 prostate is 3.37 µM; in the test on MALME-3M melanoma it was 4.33 µM; with 786-0 renal it was 3.08 µM; in the test with OVCAR-3 ovarian, 2.81 µM; with OVCAR-8 ovarian, 5.58 µM; with ACHN renal, 3.89 µM. Besides, the GI50 is 3.31 µM in the test on NCI-H460 lung, 3.31 µM in the test on IGROV1 ovarian, 3.36 µM with UO-31 renal and 1.88 µM in the test on SW-620 colon. In addition, the TGI is 7.08 µM with DU-145 prostate; 12.2 µM in the test with MALME-3M melanoma; 6.32 µM with 786-0 renal; 6.14 µM with OVCAR-3 ovarian; over 25 µM in the test on OVCAR-8 ovarian; 7.23 µM with ACHN renal. Besides, the TGI with NCI-H460 lung was found to be 11.7 µM; in the test with IGROV1 ovarian, 9.68 µM; in the test on UO-31 renal, 6.56 µM; in the test with SW-620 colon, 6.79 µM.

In the case of `Clc1nc2ccccc2nc1CI`, the GI50 with DU-145 prostate is 17.1 µM; in the test with MALME-3M melanoma it was 2.2 µM; with 786-0 renal it was 3.95 µM; with OVCAR-3 ovarian, 5.1 µM; in the test with OVCAR-8 ovarian, 3.42 µM; in the test with ACHN renal it was 1.78 µM. The GI50 in the test on NCI-H460 lung is 11 µM; in the test on IGROV1 ovarian, 6.47 µM; in the test with UO-31 renal it was 2.05 µM; with SW-620 colon, 2.57 µM. Further, the TGI in the test on DU-145 prostate came out at 30.8 µM; in the test on MALME-3M melanoma it was 4.52 µM; in the test on 786-0 renal, 13.8 µM; in the test with OVCAR-3 ovarian it was 9.66 µM; with OVCAR-8 ovarian, 12.4 µM; in the test with ACHN renal it was 3.27 µM. Further, the TGI in the test with NCI-H460 lung was found to be 28.5 µM; with IGROV1 ovarian, 17 µM; with UO-31 renal, 5.17 µM; in the test on SW-620 colon it was 6.87 µM.
